The source of these data is patent US11312727B1, “Macrocyclic flu endonuclease inhibitors” (Janssen BioPharma, Inc., priority 2018, dated 2022).

The subject of data set [1] is Influenza strain A549 A/WSN/33 (H1N1). Nature of the data set: microbe, parasite or virus in culture. The format is cell-based. Conditions: Influenza A virus, A549, 20 h, A549 cells, influenza A/WSN/33 (H1N1), 20 hours incubation; read-out: A549_A(H1N1) EC50.
The nature of a further data set: in vitro. Particulars: human, CC50, uninfected A549 cells, CellTiter-Glo.

By EC50 is commonly meant the concentration needed to bring the measured effect to its halfway point. One may read the CC50 as the concentration at which the toxic effect on the cells reaches its halfway point.

Bounds are passed on as bounds.

Consider `O=C1c2c(O)c(=O)ccn2N2CN1C/C=C\COc1cc(C(F)F)ccc1[C@H]2c1ccccc1` (single isomer, unassigned) [Compound 94B, (18*R,Z)-3-(difluoromethyl)-12-hydroxy-18-phenyl-6,9-dihydro-18H-10,17-methanobenzo[b]pyrido[1,2-f][1]oxa[5,6,9]triazacyclotridecine-11,13-dione], for which the EC50 in data set [1] was greater than 0.5 µM. The same compound returned a 50% cytotoxic concentration (CC50) in the data set “in vitro” greater than 1 µM.

As for `C[C@H]1/C=C\COc2cccc3c2[C@@H](c2ccccc2SC3)N2CN1C(=O)c1c(O)c(=O)ccn12` (single isomer, unassigned) [Compound 138AA, (13*S,21a*S,Z)-16-hydroxy-13-methyl-6,10,13,21a-tetrahydro-7,8-(epiprop[1]en[1]yl[3]ylidene)-14,21-methanobenzo[6,7]thiepino[4,5-c]pyrido[1,2-f][1]oxa[5,6,9]triazacyclotridecine-15,17-dione], the EC50 in data set [1] came to 0.0008 µM. Besides, the CC50 in “in vitro” is greater than 0.05 µM.

In the case of `C[C@@H]1C/C=C/COc2c(F)cccc2[C@@H](c2ccccc2)N2CN1C(=O)c1c(O)c(=O)ccn12` (single isomer, unassigned) [Compound 100AB, (2*R,9*R,*E)-33-fluoro-15-hydroxy-9-methyl-2-phenyl-12,13,14,16-tetrahydro-11H-4-oxa-1(1,3)-pyrido[2,1-f][1,2,4]triazina-3(1,2)-benzenacyclononaphan-6-ene-14,16-dione], in data set [1], the EC50 is 0.0021 µM. The compound further registered a CC50 in “in vitro” greater than 0.2 µM.

`CC(C)[C@H]1/C=C/COc2c(ccc(F)c2F)[C@@H](c2ccccc2)N2CN1C(=O)c1c(O)c(=O)ccn12` (single isomer, unassigned) [Compound 128AB, (9*S,18*R,*E)-3,4-difluoro-12-hydroxy-9-isopropyl-18-phenyl-6,9-dihydro-18H-10,17-methanobenzo[b]pyrido[1,2-f][1]oxa[5,6,9]triazacyclotridecine-11,13-dione]: the concentration for a half-maximal effect (EC50) in data set [1] came to 0.065 µM. Also, in the data set “in vitro”, the CC50 was greater than 0.2 µM.

As for `O=C1c2c(O)c(=O)ccn2N2CN1C/C=C\COc1ccccc1[C@H]2c1cccnc1` (single isomer, unassigned) [Compound 26A, (18*R,*Z)-12-hydroxy-18-(pyridin-3-yl)-6,9-dihydro-18H-10,17-methanobenzo[b]pyrido[1,2-f][1]oxa[5,6,9]triazacyclotridecine-11,13-dione], the EC50 in data set [1] turned out to be 0.394 µM. In “in vitro”, this compound had a CC50 greater than 2 µM.

Consider `O=C1c2c(O)c(=O)ccn2N2CN1C1(/C=C/COc3c(ccc(F)c3F)[C@H]2c2ccccc2)CC1` [Compound 102A, (18′R,E)-3′,4′-difluoro-12′-hydroxy-18′-phenyl-6′H,18′H-spiro[cyclopropane-1,9′-[10,17]methanobenzo[b]pyrido[1,2-f][1]oxa[5,6,9]triazacyclotridecine]-11′,13′-dione], for which the EC50 in data set [1] came out at 0.0009 µM. This compound also registered a CC50 in “in vitro” greater than 0.1 µM.

As for `O=C1c2c(O)c(=O)ccn2N2CN1CC/C=C\c1ccccc1C2c1ccccc1` (stereo not drawn) [Compound 54, (*Z)-4-hydroxy-15-phenyl-8,15-dihydro-7H-6,16-methanobenzo[j]pyrido[1,2-b][1,2,5]triazacyclododecine-3,5-dione], in data set [1], the EC50 is 0.117 µM. For the same compound, the CC50 in “in vitro” was greater than 20 µM.

For `O=C1c2c(O)c(=O)ccn2N2CN1C/C=C\COc1cc(Cl)ccc1[C@@H]2c1ccccc1` (single isomer, unassigned) [Compound 72B, (18*S,Z)-3-chloro-12-hydroxy-18-phenyl-6,9-dihydro-18H-10,17-methanobenzo[b]pyrido[1,2-f][1]oxa[5,6,9]triazacyclotridecine-11,13-dione], in data set [1], the EC50 came out at 0.008 µM. In addition, in “in vitro”, the CC50 was greater than 2 µM.

With `O=C1c2c(O)c(=O)ccn2N2CN1CC[C@@H]1C[C@H]1COc1cccc3c1[C@@H]2c1ccccc1SC3` (single isomer, unassigned) [Compound 131AA, (1*R,13*S,15*R)-7-hydroxy-17-oxa-24-thia-2,3,10-triazaheptacyclo[16.12.1.12,10.03,8.013,15.022,31.025,30]dotriaconta-4,18,20,22(31),25(30),26,28-heptaene-6,9-dione], the EC50 in data set [1] is 0.0047 µM. This compound had a CC50 in “in vitro” greater than 0.2 µM.

As for `O=C1c2c(O)c(=O)ccn2N2CN1C[C@@H]1C[C@H]1COc1c(F)cccc1[C@H]2c1ccccc1` (single isomer, unassigned) [Compound 125AA, (1a*R,8*R,17a*R)-4-fluoro-14-hydroxy-8-phenyl-1a,2,17,17a-tetrahydro-1H,8H-9,16-methanobenzo[b]cyclopropa[k]pyrido[1,2-f][1]oxa[5,6,9]triazacyclotridecine-13,15-dione], the EC50 in data set [1] worked out at 0.051 µM. The compound further yielded a CC50 in the data set “in vitro” greater than 0.2 µM.

Regarding `O=C1c2c(O)c(=O)ccn2N2CN1C[C@@H]1C[C@H]1COc1cccc3c1[C@H]2c1ccccc1SC3` [Compound 87BB, (1aR,11bS,20aR)-17-hydroxy-1a,2,6,11b,20,20a-hexahydro-1H-5,4-(epiprop[1]en[1]yl[3]ylidene)-12,19-methanobenzo[6,7]thiepino[4,5-c]cyclopropa[k]pyrido[1,2-f][1]oxa[5,6,9]triazacyclotridecine-16,18-dione], the EC50 in data set [1] is 0.004 µM. The CC50 in “in vitro” is greater than 0.2 µM.

Turning to `O=C1c2c(O)c(=O)ccn2N2CN1CCCCCCc1ccccc1C2c1ccccn1` (stereo not drawn) [Compound 11, 15-hydroxy-2-(pyridin-2-yl)-12,13,14,16-tetrahydro-11H-1(1,3)-pyrido[2,1-f][1,2,4]triazina-3(1,2)-benzenacyclononaphane-14,16-dione], in data set [1], the EC50 amounted to 0.363 µM. The same compound showed a CC50 in “in vitro” greater than 2 µM.

Take `O=C1c2c(O)c(=O)ccn2N2CN1C1(/C=C/COc3cccc4c3[C@H]2c2ccccc2SC4)CCC1` (single isomer, unassigned) [Compound 147B, (17a′*S,*E)-12′-hydroxy-2′,17a′-dihydro-6′H-spiro[cyclobutane-1,9′-[3,4](epiprop[1]en[1]yl[3]ylidene)[10,17]methanobenzo[6,7]thiepino[4,5-c]pyrido[1,2-f][1]oxa[5,6,9]triazacyclotridecine]-11′,13′-dione]: in data set [1], the EC50 turned out to be 0.00033 µM. Further, the CC50 in “in vitro” was greater than 0.1 µM.

For the compound `CC(C)c1ccccc1[C@@H]1c2ccc(F)c(F)c2OC/C=C\CN2CN1n1ccc(=O)c(O)c1C2=O` (single isomer, unassigned) [Compound 158B, (18*R,*Z)-3,4-difluoro-12-hydroxy-18-(2-isopropylphenyl)-6,9-dihydro-18H-10,17-methanobenzo[b]pyrido[1,2-f][1]oxa[5,6,9]triazacyclotridecine-11,13-dione], in data set [1], the EC50 is greater than 0.05 µM. The compound further displayed a CC50 in “in vitro” greater than 0.1 µM.

For `O=C1c2c(O)c(=O)ccn2N2CN1C/C=C\COc1cccnc1[C@H]2c1ccccc1` (single isomer, unassigned) [Compound 27A, (18*R,*Z)-12-hydroxy-18-phenyl-6,9-dihydro-18H-10,17-methanodipyrido[3,2-b:1′,2′-f][1]oxa[5,6,9]triazacyclotridecine-11,13-dione], the EC50 in data set [1] came out at 0.094 µM. Besides, the CC50 in “in vitro” is greater than 2 µM.

In the case of `O=C1c2c(O)c(=O)ccn2N2CN1C/C=C\COc1c(F)cccc1[C@@H]2c1cccc(F)c1` (single isomer, unassigned) [Compound 59B, (18*S,Z)-4-fluoro-18-(3-fluorophenyl)-12-hydroxy-6,9-dihydro-18H-10,17-methanobenzo[b]pyrido[1,2-f][1]oxa[5,6,9]triazacyclotridecine-11,13-dione], in data set [1], the EC50 is 0.497 µM. In “in vitro”, this compound returned a CC50 greater than 2 µM.

For `O=C1c2c(O)c(=O)ccn2N2CN1CCCCOc1c(F)cccc1[C@H]2c1ccccc1` (single isomer, unassigned) [Compound 114A, (18*R)-4-fluoro-12-hydroxy-18-phenyl-6,7,8,9-tetrahydro-18H-10,17-methanobenzo[b]pyrido[1,2-f][1]oxa[5,6,9]triazacyclotridecine-11,13-dione], the EC50 in data set [1] amounted to 0.007 µM. For the same compound, the CC50 in the data set “in vitro” was greater than 0.2 µM.

For the compound `O=C1c2c(O)c(=O)ccn2N2CN1C/C=C\COc1c(F)cccc1[C@H]2c1cccc(F)n1` (single isomer, unassigned) [Compound 104B, (18*S,*Z)-4-fluoro-18-(6-fluoropyridin-2-yl)-12-hydroxy-6,9-dihydro-18H-10,17-methanobenzo[b]pyrido[1,2-f][1]oxa[5,6,9]triazacyclotridecine-11,13-dione], in data set [1], the EC50 was greater than 0.1 µM. Also, the CC50 in “in vitro” is greater than 0.2 µM.

Take `O=C1c2c(O)c(=O)ccn2N2CN1CC/C=C/COc1cc(F)c(F)c3c1[C@@H]2c1ccccc1SC3` (single isomer, unassigned) [Compound 88C, (23b*R, E)-16,17-difluoro-6-hydroxy-10,13,18,23b-tetrahydro-9H-1,8-methano[1]benzothiepino[5,4,3-lm]pyrido[2,1-i][1,7,10,11]benzoxatriazacyclotetradecine-5,7-dione]: the EC50 in data set [1] was greater than 0.5 µM. For the same compound, the CC50 in the data set “in vitro” is greater than 1 µM.

With `O=C1c2c(O)c(=O)ccn2N2CN1CC/C=C/CCOc1ccccc1[C@@H]2c1ccccc1` (single isomer, unassigned) [Compound 65D, (2*S,*E)-15-hydroxy-2-phenyl-12,13,14,16-tetrahydro-11H-4-oxa-1(1,3)-pyrido[2,1-f][1,2,4]triazina-3(1,2)-benzenacyclodecaphan-7-ene-14,16-dione], in data set [1], the EC50 was 0.066 µM. This compound yielded a CC50 in “in vitro” greater than 2 µM.

`O=C1c2c(O)c(=O)ccn2N2CN1CCCCOc1c(ccc(F)c1F)[C@H]2c1ccccc1` (single isomer, unassigned) [Compound 115A, (18*R)-3,4-difluoro-12-hydroxy-18-phenyl-6,7,8,9-tetrahydro-18H-10,17-methanobenzo[b]pyrido[1,2-f][1]oxa[5,6,9]triazacyclotridecine-11,13-dione]: the EC50 in data set [1] is greater than 0.1 µM. Moreover, in “in vitro”, the CC50 was greater than 0.2 µM.
